Laboratory results reported in patent US8119647B2, “Fused pyrimidineone compounds as TRPV3 modulators” (Glenmark Pharmaceuticals S.A., priority 2008, dated 2012).

Target: T1, Human TRPV3 (Homo sapiens, UniProt Q8NET8)
T1 construct: expressed in transfected cells; host or cells: CHO cells (G-418 selection)
T1 sequence (Q8NET8 1-790): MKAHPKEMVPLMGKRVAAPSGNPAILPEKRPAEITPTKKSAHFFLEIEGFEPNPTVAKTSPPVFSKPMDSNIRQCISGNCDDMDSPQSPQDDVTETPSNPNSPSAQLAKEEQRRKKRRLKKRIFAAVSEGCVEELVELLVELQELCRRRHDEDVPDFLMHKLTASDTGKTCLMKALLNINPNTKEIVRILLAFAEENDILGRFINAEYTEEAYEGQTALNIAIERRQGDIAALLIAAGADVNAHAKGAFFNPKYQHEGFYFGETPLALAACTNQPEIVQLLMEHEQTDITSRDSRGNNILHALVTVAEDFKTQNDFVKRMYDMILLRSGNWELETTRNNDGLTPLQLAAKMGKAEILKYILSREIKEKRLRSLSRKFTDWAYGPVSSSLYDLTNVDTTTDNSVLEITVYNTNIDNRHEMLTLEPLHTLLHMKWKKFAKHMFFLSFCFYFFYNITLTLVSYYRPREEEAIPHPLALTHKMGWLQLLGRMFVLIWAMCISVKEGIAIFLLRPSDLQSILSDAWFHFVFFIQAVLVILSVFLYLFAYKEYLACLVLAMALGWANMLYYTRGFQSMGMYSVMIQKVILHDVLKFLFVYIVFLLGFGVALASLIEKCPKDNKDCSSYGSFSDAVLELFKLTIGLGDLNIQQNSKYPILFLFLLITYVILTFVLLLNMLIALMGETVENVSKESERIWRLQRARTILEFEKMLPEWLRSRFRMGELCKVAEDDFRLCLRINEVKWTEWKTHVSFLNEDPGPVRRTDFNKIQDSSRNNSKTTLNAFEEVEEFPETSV
Experiment: Screening for TRPV3 antagonist using the 45Calcium uptake assay (inhibition of 2-APB induced cellular uptake of radioactive calcium)
Assay type: cell-based
Settings: human TRPV3 expressing CHO cells, 2-APB 500 μM; for inhibition at 1 µM / Percentage inhibition at 1.0 μM: 1.0 μM test compound; for inhibition at 1 µM: read-out: Percentage inhibition at 1.0 μM; for inhibition at 10 µM / Percentage inhibition at 10.0 μM: 10.0 μM test compound; for inhibition at 10 µM: read-out: Percentage inhibition at 10.0 μM; for IC50: class symbols
Description: The illustrative examples of the present invention are screened for TRPV3 activity according to a modified procedure described in Tóth, A., Kedei, N., Wang, Y. and Blumberg, P. M. Life Sciences (2003), 73, 487-498. The screening of the compounds can be carried out by other methods and procedures known to a person skilled in the art. Such screening methods may be found in (a) Hu, H.-Z. et al. J. Biol. Chem. (2004), 279, 35741-35747; (b) Smith, G. D. et al. Nature (2002), 418, 186-190; (c) Peier, A. M. et al. Science (2002), 296, 2046-2049.
Screening for TRPV3 Antagonist Using the ^45Calcium Uptake Assay:
The inhibition of TRPV3 receptor activation was followed as inhibition of 2-aminoethoxydiphenylborate (2-APB) induced cellular uptake of radioactive calcium. Test compounds were dissolved in dimethyl sulfoxide (DMSO) to prepare 20 mM stock solution and then diluted using plain medium with DMEM/F-12 containing 1.8 mM CaCl2 to get desired concentration. Final concentration of DMSO in the reaction was 0.5% (v/v). Human TRPV3 expressing CHO cells were grown in DMEM/F-12 medium with 10% FBS, 1% penicillin-streptomycin solution, 400 μg/ml of G-418. Cells were seeded 24 h prior to the assay in 96 well plates so as to get ˜50,000 cells per well on the day of experiment. Cells were treated with test compounds for 10 minutes followed by addition of 2-APB at a final concentration of 500 μM and 5 μCi/ml ^45Ca^+2 for 4 minutes. Cells were washed and lysed using buffer containing 1% Triton X-100, 0.1% deoxycholate and 0.1% SDS. Radioactivity in the lysate was measured in Packardt Top count after addition of liquid scintillant. Concentration response curves were plotted as a % of maximal response obtained in the absence of test antagonist. IC50 value was calculated from concentration response curve by nonlinear regression analysis using GraphPad PRISM software.
Percentage inhibition at concentrations of 1.0 μM and 10.0 μM are given in the table along with IC50 (nM) values for selected examples.

| inhibition at 1 µM [%] | inhibition at 10 µM [%] | IC50 [nM] | SMILES | Percentage inhibition at 1.0 μM [%] | Percentage inhibition at 10.0 μM [%] |
| --- | --- | --- | --- | --- | --- |
| 23.4 | 34.1 | – | CCCOc1cccc(/C=C/c2nc3sccn3c(=O)c2-c2ccc(OC(F)(F)F)cc2)c1OCC1CC1 [Example 66, 7-{(E)-2-[2-(Cyclopropylmethoxy)-3-propoxyphenyl}-1-ethenyl]-6-(4-trifluoromethoxy-phenyl)-5H-[1,3]thiazolo[3,2-a]pyrimidin-5-one] | – | – |
| 79.2 | 94.9 | 250 to 500 | COCCOc1c(/C=C/c2nc3sccn3c(=O)c2-c2ccc(OC(F)(F)F)cc2)cccc1OC [Example 73, 7-[(E)-2-{3-Methoxy-2-(2-methoxyethoxy)phenyl}-1-ethenyl]-6-[4-(trifluoromethoxy)-phenyl]-5H-[1,3]thiazolo[3,2-a]pyrimidin-5-one] | – | – |
| 27.1 | 47.5 | – | COc1cccc(/C=C/c2nc3sc(Cl)cn3c(=O)c2-c2ccc(OC(F)(F)F)cc2)c1OCC(C)(C)C [Example 78, 2-Chloro-7-[(E)-2-(2-(2,2-dimethylpropoxy)-3-methoxyphenyl)vinyl]-6-[4-(trifluoromethoxy)phenyl]-5H-[1,3]thiazolo[3,2-a]pyrimidin-5-one] | – | – |
| 74.6 | 88.4 | 250 to 500 | COc1cccc(/C=C/c2nc3sccn3c(=O)c2-c2ccc(C#N)cc2)c1OCC1CCCCC1 [Example 19, 4-{7-[(E)-2-(2-Cyclohexylmethoxy-3-methoxy)phenyl-1-ethenyl]-5-oxo-5H-[1,3]-thiazolo[3,2-a]pyrimidin-6-yl}benzonitrile] | – | – |
| 80 | 95.1 | < 250 | COc1cccc(/C=C/c2nc3sccn3c(=O)c2-c2ccc(OC(F)F)cc2)c1OCC1CC1 [Example 48, 7-[(E)-2-(2-Cyclopropylmethoxy-3-methoxyphenyl)-1-ethenyl]-6-(4-difluoromethoxyphenyl]-5H-[1,3]thiazolo[3,2-a]pyrimidin-5-one] | – | – |
| 80.2 | 92.2 | < 250 | COc1cccc(/C=C/c2nc3sccn3c(=O)c2-c2ccc(OC(F)(F)F)cc2)c1OCC1CCC1 [Example 67, 7-[(E)-2-{2-Cyclobutylmethoxy-3-methoxyphenyl}-1-ethenyl]-6-[4-(trifluoromethoxy)-phenyl]-5H-[1,3]thiazolo[3,2-a]pyrimidin-5-one] | – | – |
| 59.7 | 85.3 | – | COc1cccc(/C=C/c2nc3sccn3c(=O)c2-c2ccc(C(F)(F)F)cc2)c1OCCC(C)C [Example 28, 7-[(E)-2-(2-Isopentyloxy-3-methoxyphenyl)-1-ethenyl]-6-[4-(trifluoromethyl)phenyl]-5H-[1,3]thiazolo[3,2-a]pyrimidin-5-one] | – | – |
| 20.2 | 39.3 | – | CCOCCOc1c(/C=C/c2nc3sc4ccccc4n3c(=O)c2-c2ccc(OC(F)(F)F)cc2)cccc1OC [Example 97, 2-{(E)-2-[(2-Ethoxyethoxy)-3-methoxyphenyl]-1-ethenyl}-3-(4-trifluoromethoxy-phenyl)-4H-benzo[4,5][1,3]thiazolo-[3,2-a]pyrimidin-4-one] | – | – |

The remaining lines, values behind:

| SMILES | inhibition at 1 µM [%] | inhibition at 10 µM [%] | IC50 [nM] | Percentage inhibition at 1.0 μM [%] | Percentage inhibition at 10.0 μM [%] |
| --- | --- | --- | --- | --- | --- |
| COc1ccc(/C=C/c2nc3sccn3c(=O)c2-c2ccc(C(F)(F)F)cc2)cc1OCC1CC1 [Example 37, 7-[(E)-2-(3-Cyclopropylmethoxy-4-methoxyphenyl)-1-ethenyl]-6-[4-(trifluoromethyl)-phenyl]-5H-[1,3]thiazolo[3,2-a]pyrimidin-5-one] | 39.6 | 88.1 | – | – | – |
| COc1cccc(/C=C/c2nc3sccn3c(=O)c2-c2ccc(OCC(F)(F)F)cc2)c1OCC1CC1 [Example 45, 7-[(E)-2-(2-Cyclopropylmethoxy-3-methoxyphenyl)-1-ethenyl]-6-(4-(2,2,2-trifluoroethoxy)phenyl]-5H-[1,3]thiazolo[3,2-a]pyrimidin-5-one] | 30.7 | 77.5 | – | – | – |
| O=c1c(-c2ccc(OC(F)(F)F)cc2)c(/C=C/c2cccc(O)c2O)nc2sccn12 [Example 59] | – | – | – | 3.68 | 0.00 |
| COc1cccc(/C=C/c2nc3scc(C(F)(F)F)n3c(=O)c2-c2ccc(C#N)cc2)c1OCC(C)(C)C [Example 82, 4-{7-[(E)-2-(3-Methoxy-2-neopentyloxyphenyl)-1-ethenyl]-5-oxo-3-(trifluoromethyl)-5H-[1,3]thiazolo[3,2-a]pyrimidin-6-yl}benzonitrile] | 57.4 | 70.3 | – | – | – |
| COc1cccc(/C=C/c2nc3sccn3c(=O)c2-c2ccc(C(F)(F)F)cc2)c1OCC(C)C [Example 27, 7-[(E)-2-(2-Isobutoxy-3-methoxyphenyl)-1-ethenyl]-6-[4-(trifluoromethyl)phenyl]-5H-[1,3]thiazolo[3,2-a]pyrimidin-5-one] | 69.6 | 88 | < 250 | – | – |
| COc1cccc(/C=C/c2nc3sc(Cl)cn3c(=O)c2-c2ccc(N(C)C)cc2)c1OCC(C)(C)C [Example 79, 2-Chloro-6-[4-(dimethylamino)phenyl]-7-[(E)-2-(2-(2,2-dimethylpropoxy)-3-methoxy-phenyl)vinyl]-5H-[1,3]thiazolo[3,2-a]pyrimidin-5-one] | 57.9 | – | – | – | – |
| COc1cccc(/C=C/c2nc3sccn3c(=O)c2-c2ccc(F)nc2)c1OCC1CC1 [Example 3] | – | – | – | 20.1 | 89.3 |
| O=c1c(-c2ccc(OC(F)(F)F)cc2)c(/C=C/c2cccc(OCC3CC3)c2OCC2CC2)nc2sccn12 [Example 64, 7-{(E)-2-[2-(Cyclopropylmethoxy)-3-(cyclopropylmethoxy)phenyl]-1-ethenyl}-6-(4-trifluoromethoxyphenyl)-5H-[1,3]thiazolo[3,2-a]pyrimidin-5-one] | 16.3 | 21.1 | – | – | – |
| CCOCCOc1c(/C=C/c2nc3sc4ccccc4n3c(=O)c2-c2ccc(C(F)(F)F)cc2)cccc1OC [Example 93, 2-{(E)-2-[(2-Ethoxyethoxy)-3-methoxyphenyl]-1-ethenyl}-3-(4-trifluoromethyl-phenyl)-4H-benzo[4,5][1,3]thiazolo-[3,2-a]pyrimidin-4-one] | – | – | – | 6.53 | 40.18 |
| COc1cccc(/C=C/c2nc3sccn3c(=O)c2-c2ccc(C#N)cc2)c1OCC1CC1 [Example 16, 4-{7-[(E)-2-[2-(Cyclopropylmethoxy)-3-methoxyphenyl]-1-ethenyl}-5-oxo-5H-[1,3]thiazolo[3,2-a]pyrimidin-6-yl}benzonitrile] | 59.3 | 91.7 | 500 to 1000 | – | – |
| COc1cccc(/C=C/c2nc3sccn3c(=O)c2-c2ccc(C#N)cc2)c1OCc1cccc(F)c1 [Example 20] | – | – | – | 56.5 | 79.3 |
| COc1cccc(/C=C/c2nc3sccn3c(=O)c2-c2ccc(OC(F)(F)F)cc2)c1O [Example 69, 7-[(E)-2-(2-Hydroxy-3-methoxyphenyl)-1-ethenyl]-6-[4-(trifluoromethoxy)phenyl]-5H-[1,3]thiazolo[3,2-a]pyrimidin-5-one] | 51.5 | 91.5 | – | – | – |
